In US20260049072A1, “HETEROCYCLIC COMPOUND FOR INDUCING DEGRADATION OF MUTANT KRAS PROTEIN” (Astellas Pharma Inc., priority 2022, published 2026):
pIC50: −log10 of the molar value. Like-named read-outs stand apart in the source and are kept apart here.

What was measured:
RAS G12D = biological target: T1, RAS G12D (Homo sapiens, UniProt P01116, G12D); test: RAS G12D degradation activity, Cell ELISA, AsPC-1; format: cell-based; details: AsPC-1 cells, 24 hours; read-out: DC50 (RAS G12D 50% degradation value)
T1 construct: host or cells: AsPC-1 human pancreatic cancer cells
T1 sequence (P01116 1-188 isoform P01116-2 G12D): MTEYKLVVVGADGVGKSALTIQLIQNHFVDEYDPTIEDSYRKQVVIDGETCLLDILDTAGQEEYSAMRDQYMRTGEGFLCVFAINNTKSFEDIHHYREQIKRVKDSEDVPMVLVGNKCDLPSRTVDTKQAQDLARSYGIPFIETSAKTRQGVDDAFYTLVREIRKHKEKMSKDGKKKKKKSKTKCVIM
Procedure: Test Example 1-2: Evaluation of RAS G12D Degradation Activity on Human KRAS G12D Mutant-Positive Pancreatic Cancer Line AsPC-1
The RAS G12D degradation activities of subject compounds were evaluated in the same manner as in Test Example 1-1 by measuring the expression levels of RAS G12D by a Cell ELISA method.
AsPC-1 cells (ATCC, CRL-1682) were seeded at 36 μL per well on a 384-well plate to give 2.0×10^4 cells per well. As for the cell culture conditions, RPMI-1640 medium (from Sigma-Aldrich) containing 10% fetal bovine serum was used in the presence of 5% CO2 at 37° C.
The next day, the subject compounds (10 points having final concentrations in the range of 3 μM to 0.1 nM) and DMSO, which was the solvent for the subject compounds, as a negative control were diluted 100-fold with a fresh medium and were each added at 4 μL per well, followed by culturing for 24 hours.
The next day, the procedures from the immobilization of the cells to before the addition of the blocking solution were performed by the same methods as in Test Example 1-1. A blocking solution (Intercept Blocking Buffer; from LI-COR Biosciences) was added at 20 μL per well. After allowing the plate to stand for 30 minutes at room temperature, the supernatant was removed by centrifugation. A solution obtained by diluting an anti-R-actin antibody (1,000-fold dilution) with the blocking solution was added to the wells of the positive control as a primary antibody, and a solution obtained by diluting an anti-Ras (G12D Mutant Specific) antibody (Ras (G12D Mutant Specific) (D8H7) Rabbit mAb; from Cell Signaling Technology; 1,000-fold dilution) and an anti-3-actin antibody (1,000-fold dilution) with the blocking solution was added to the other wells as primary antibodies, each at 15 μL per well. The plate was allowed to stand overnight at 4° C.
The next day, the supernatant was removed by centrifugation, and the plate was washed with PBS. The supernatant was removed by centrifugation, and a solution obtained by diluting an anti-rabbit IgG antibody and an anti-mouse IgG antibody 1,000-fold with the blocking solution was added at 15 μL per well as secondary antibodies. After allowing the plate to stand at room temperature for an hour, the supernatant was removed by centrifugation, and the plate was washed with PBS. After removing the supernatant, the plate was dried as it was with air at room temperature for two hours or more, and the 700-nm and 800-nm fluorescent signals were measured with Aerius.
With the RAS G12D signaling value at the time of addition of DMSO corrected with the signaling value of β-actin taken as 0% and with the RAS G12D signaling value under the conditions of staining with the anti-β-actin antibody alone taken as 100%, the RAS G12D degradation rates were calculated. The 50% degradation values (DC50) were calculated by Sigmoid-Emax model nonlinear regression analysis.

MIA PaCa-2 cells = test: Non-anchorage-dependent cell growth inhibition (spheroid 3D culture), MIA PaCa-2; format: cell-based; details: Homo sapiens, MIA PaCa-2, 144 h, read-out: MIA PaCa-2 IC50
Procedure: Test Example 3: Evaluation of Non-Anchorage-Dependent Cell Growth Inhibitory Activity on Human KRAS G12V Mutant-Positive Pancreatic Cancer Line PA-TU-8902, Human KRAS G12D Mutant-Positive Pancreatic Cancer Line AsPC-1 or Human KRAS G12C Mutant-Positive Pancreatic Cancer Line MIA PaCa-2
The non-anchorage-dependent cell growth inhibitory activities of subject compounds were evaluated by spheroid 3D cell culture.
PA-TU-8902 cells, AsPC-1 cells or MIA PaCa-2 cells (RIKEN BRC, RCB2094) were seeded at 36 µL/well on a low-cell-adhesive round bottom 384-well plate (Prime Surface: from Sumitomo Bakelite) to give 5×10^2 cells per well. The PA-TU-8902 cells were under the same conditions as in Test Example 1-1, and the AsPC-1 cells were under the same conditions as in Test Example 1-2. For the MIA PaCa-2 cells, RPMI-1640 medium containing 10% fetal bovine serum was used in the presence of 5% CO2 at 37° C.
The next day, the subject compounds (6-9 points having final concentrations in the range of 3 μM to 0.3 nM) and DMSO, which was the solvent for the subject compounds, as a negative control were diluted 100-fold with a fresh medium and were each added at 4 μL per well. After culturing in the presence of 5% CO2 at 37° C. for six days, CellTiter-Glo 2.0 (from Promega) was added at 20 μL per well. After stirring with a plate mixer (from FINEPCR) at normal temperature for an hour, the luminescent signals were measured with ARVO X3 (from PerkinElmer).
With the signaling value in treatment with DMSO taken as 0% inhibition and with the signaling value in the medium alone without cells taken as 100% inhibition, the 50% inhibition values (IC50) were calculated by Sigmoid-Emax model nonlinear regression analysis.

[1] = KRAS G12C mutant-positive, 3D spheroid, six days, CellTiter-Glo 2.0

Structure (SMILES) | DC50 (RAS G12D) | pIC50 (MIA PaCa-2 cells; [1]) | pIC50 (MIA PaCa-2 cells)
CO[C@@H](C)COc1nc(NC2CN(C(=S)N3CC(CN(C)C)C3)C2)c2cc(C3CC3)c(-c3c(C)c(F)cc4[nH]ncc34)c(OCc3ccc(-c4cn([C@H](C(=O)N5C[C@H](O)C[C@H]5C(=O)N[C@@H](CO)c5ccc(-n6cncn6)cc5)C(C)C)nn4)cc3)c2n1 (atropisomer, axis not shown) [Example 26] | 6 nM | 8.15 | 
CO[C@@H](C)COc1cc(OC2CN(C(=O)C3CN(C)C3)C2)c2cc(C3CC3)c(-c3c(C)c(F)cc4[nH]ncc34)c(OCc3ccc(-c4cn([C@H](C(=O)N5C[C@H](O)C[C@H]5C(=O)N[C@@H](CO)c5ccc(-n6cncn6)cc5)C(C)C)nn4)cc3)c2n1 (atropisomer, axis not shown) [Example 42] | 6 nM |  | 8.05
CO[C@@H](C)COc1nc(OC2CN(C(=O)NCCN(C)C)C2)c2cc(C3CC3)c(-c3c(C)c(F)cc4[nH]ncc34)c(OCc3ccc(-c4cn([C@H](C(=O)N5C[C@H](O)C[C@H]5C(=O)N[C@@H](CO)c5ccc(-c6scnc6C)cc5)C(C)C)nn4)cc3)c2n1 (atropisomer, axis not shown) [Example 17] | 11 nM | 8.00 | 
CO[C@@H](C)COc1nc(N2CC(C#N)C2)c2cc(C3CC3)c(-c3c(C)c(F)cc4[nH]ncc34)c(OCc3ccc(-c4cn([C@H](C(=O)N5C[C@H](O)C[C@H]5C(=O)N[C@@H](CO)c5ccc(-c6scnc6C)cc5)C(C)C)nn4)cc3)c2n1 (atropisomer, axis not shown) [Example 20] | 16 nM | 7.85 | 
Cc1ncsc1-c1ccc([C@H](CO)NC(=O)[C@@H]2C[C@@H](O)CN2C(=O)[C@H](C(C)C)n2cc(-c3ccc(COc4c(-c5c(C)c(F)cc6[nH]ncc56)c(C5CC5)cc5c(NC6CN(c7ncccn7)C6)nc(OC6CCOCC6)nc45)cc3)nn2)cc1 [Example 15, (4R)-1-[(2S)-2-{4-[4-({[(7M)-6-cyclopropyl-7-(6-fluoro-5-methyl-1H-indazol-4-yl)-2-[(oxan-4-yl)oxy]-4-{[1-(pyrimidin-2-yl)azetidin-3-yl]amino}quinazolin-8-yl]oxy}methyl)phenyl]-1H-1,2,3-triazol-1-yl}-3-methylbutanoyl]-4-hydroxy-N-{(1R)-2-hydroxy-1-[4-(4-methyl-1,3-thiazol-5-yl)phenyl]ethyl}-L-prolinamide] | 146 nM | 8.22 | 
CO[C@@H](C)COc1nc(OC2CN(C(=O)NCCN(C)C)C2)c2cc(C3CC3)c(-c3c(C)c(F)cc4[nH]ncc34)c(OCc3ccc(C(=O)N[C@H](C(=O)N4C[C@H](O)C[C@H]4C(=O)N[C@@H](CO)c4ccc(-c5scnc5C)cc4)C(C)C)cc3)c2n1 [Example 40, N-{4-[({(7M)-6-cyclopropyl-4-[(1-{[2-(dimethylamino)ethyl]carbamoyl}azetidin-3-yl)oxy]-7-(6-fluoro-5-methyl-1H-indazol-4-yl)-2-[(2S)-2-methoxypropoxy]quinazolin-8-yl}oxy)methyl]benzoyl}-L-valyl-(4R)-4-hydroxy-N-{(1R)-2-hydroxy-1-[4-(4-methyl-1,3-thiazol-5-yl)phenyl]ethyl}-L-prolinamide] | 47 nM |  | 7.70
CO[C@@H](C)COc1nc(NC2CN(C(=O)O[C@H]3C[C@@H](N(C)C)C3)C2)c2cc(C3CC3)c(-c3c(C)c(F)cc4[nH]ncc34)c(OCc3ccc(-c4cn([C@H](C(=O)N5C[C@H](O)C[C@H]5C(=O)N[C@@H](CO)c5ccc(N6CCOC6=O)cc5)C(C)C)nn4)cc3)c2n1 (atropisomer, axis not shown) [Example 4] | 20 nM | 7.66 | 
Cc1ncsc1-c1ccc([C@H](CO)NC(=O)[C@@H]2C[C@@H](O)CN2C(=O)[C@H](C(C)C)n2cc(-c3ccc(COc4c(-c5c(C)c(F)cc6[nH]ncc56)c(C5CC5)cc5c(NCc6cccnc6)nc(OC6CCOCC6)nc45)cc3)nn2)cc1 [Example 29] | 21 nM | 8.30 | 

Stronger by DC50 (RAS G12D), values ahead:

DC50 (RAS G12D) | pIC50 (MIA PaCa-2 cells; [1]) | Structure (SMILES) | pIC50 (MIA PaCa-2 cells)
3 nM | 7.80 | CO[C@@H](C)COc1nc(NC2CN(C(=O)N3CC(CN(C)C)C3)C2)c2cc(C3CC3)c(-c3c(C)c(F)cc4[nH]ncc34)c(OCc3ccc(-c4cn([C@H](C(=O)N5C[C@H](O)C[C@H]5C(=O)N[C@@H](CO)c5ccc(-c6scnc6C)cc5)C(C)C)nn4)cc3)c2n1 (atropisomer, axis not shown) [Example 25] | 
1 nM | 7.77 | CO[C@@H](C)COc1nc(N[C@H]2C[C@H](OCCN(C)C)C2)c2cc(C3CC3)c(-c3c(C)c(F)cc4[nH]ncc34)c(OCc3ccc(-c4cn([C@H](C(=O)N5C[C@H](O)C[C@H]5C(=O)N[C@@H](CO)c5ccc(-c6scnc6C)cc5)C(C)C)nn4)cc3)c2n1 (atropisomer, axis not shown) [Example 23] | 
3 nM | 7.64 | CO[C@@H](C)COc1cc(OC2CN(C(=O)CCCN(C)C)C2)c2cc(C3CC3)c(-c3c(C)c(F)cc4[nH]ncc34)c(OCc3ccc(-c4cn([C@H](C(=O)N5C[C@H](O)C[C@H]5C(=O)N[C@@H](CO)c5ccc(-n6cncn6)cc5)C(C)C)nn4)cc3)c2n1 (atropisomer, axis not shown; (M)) [Example 41, (4R)-1-[(2S)-2-(4-{4-[({(7M)-6-cyclopropyl-4-({1-[4-(dimethylamino)butanoyl]azetidin-3-yl}oxy)-7-(6-fluoro-5-methyl-1H-indazol-4-yl)-2-[(2S)-2-methoxypropoxy]quinolin-8-yl}oxy)methyl]phenyl}-1H-1,2,3-triazol-1-yl)-3-methylbutanoyl]-4-hydroxy-N-{(1R)-2-hydroxy-1-[4-(1H-1,2,4-triazol-1-yl)phenyl]ethyl}-L-prolinamide] | 
5 nM | 7.92 | CO[C@@H](C)COc1nc(NC2CN(C(=O)O[C@H]3C[C@@H](N(C)C)C3)C2)c2cc(C3CC3)c(-c3c(C)c(F)cc4[nH]ncc34)c(OCc3ccc(-c4cn([C@H](C(=O)N5C[C@H](O)C[C@H]5C(=O)N[C@@H](CO)c5ccc(-n6cncn6)cc5)C(C)C)nn4)cc3)c2n1 (atropisomer, axis not shown; (M)) [Example 2, (1s,3R)-3-(dimethylamino)cyclobutyl 3-({(7M)-6-cyclopropyl-7-(6-fluoro-5-methyl-1H-indazol-4-yl)-8-{[4-(1-{(2S)-1-[(2S,4R)-4-hydroxy-2({(1R)-2-hydroxy-1-[4-(1H-1,2,4-triazol-1-yl)phenyl]ethyl}carbamoyl)pyrrolidin-1-yl]-3-methyl-1-oxobutan-2-yl}-1H-1,2,3-triazol-4-yl)phenyl]methoxy}-2-[(2S)-2-methoxypropoxy]quinazolin-4-yl}amino)azetidine-1-carboxylate] | 
4 nM | 7.57 | CO[C@@H](C)COc1nc(N(C)[C@H]2CCN(C(=O)NCCN(C)C)C2)c2cc(C3CC3)c(-c3c(C)c(F)cc4[nH]ncc34)c(OCc3ccc(-c4cn([C@H](C(=O)N5C[C@H](O)C[C@H]5C(=O)N[C@@H](CO)c5ccc(-c6scnc6C)cc5)C(C)C)nn4)cc3)c2n1 (atropisomer, axis not shown) [Example 19] | 
